The text below walks through data of patent US20070184082A1, “Biocompatible polymeric delivery systems for sustained release of quinazolinones” (priority 2004, published 2007).

In one series the test system is healthy male volunteers. As to the kind of experiment: Phase I clinical study of safety of oral halofuginone, three dosing regimens. The class given is in vivo, human. As for the experimental part: The Phase I clinical study described below was conducted in the PPD Development Clinical Pharmacology Unit, 72 Hospital Close, Evington, Leicester, United Kingdom, between September 2001 and October 2001. The objective of this study was to compare the safety and tolerability of halofuginone when a daily dose of 2 mg is administered using three different dosing regimens.
A single-center, open label, three-period, phase I study was performed. Eight subjects attended the PPD Development Clinic for pre-study screening […]. Visits at the Clinic were as follows:
Subjects were admitted to the Clinic on the evening of Day-1. After an overnight fast, subjects received an oral dose of 0.25 mg halofuginone with a standard snack. Each subject received a total of eight doses at 3-hour intervals starting at approximately 10:00 h on Day 1, and remained resident in the Clinic until the morning of Day 3 [after the 24 hour pharmacokinetic (PK) sample]. They returned to the Clinic for an out-patient visit on the morning of Day 4 to provide a PK blood sample. There was a washout of at least 6 days after the last dose in Period 1 before the start of dosing in Period 2.
Subjects were admitted to the Clinic at approximately 07:00 h on Day 1. Subjects were provided with breakfast and then fasted until the first dose. Subjects received an oral dose of 0.5 mg halofuginone with a standard meal at 6-hour intervals starting at approximately 13:00 h (a total of four doses) and remained resident in the Clinic until the morning of Day 3 (after the 24 hour PK sample). They returned to the Clinic for an out-patient visit on the morning of Day 4 to provide a PK blood sample. There was a washout of at least 6 days after the last dose in Period 2 before the start of dosing in Period 3.
Subjects were admitted to the Clinic on the evening of Day-1. After an overnight fast, subjects received a single oral dose of 2 mg halofuginone with breakfast at approximately 07:00 h on Day 1 and remained resident in the Clinic until the morning of Day 2 (after the 24 hour PK sample). They returned to the clinic for an out-patient visit on the morning of Day 3 to provide a PK blood sample.
Adverse events (AEs) were monitored throughout the study period. Vital signs (including blood pressure, pulse rate and oral body temperature), electrocardiogram (ECG), physical examinations and routine laboratory safety analyses were conducted at the pre-study screening and at the post-study follow-up visits.
Eight healthy male Caucasian subjects were enrolled into the study. The mean age was 31.1 years (range 19-39 years), mean height was 176.6 cm (range 169-184 cm), mean weight was 78.9 kg (range 62.7-91.7 kg) and mean BMI was 25.2 kg/m^2 (range 21.9-27.9 kg/m^2). All subjects completed the study.

Another series is described as follows: clinical. To be noted: human, in vivo, po, 2 mg. As for the experimental part: The present interim pharmacokinetic analysis was carried out by ASTER. Patients included were treated for solid tumour. On study Day 1 each patient received one oral dose of halofuginone, either 1 mg (one patient) or 2 mg (6 patients), and blood samples for pharmacokinetics were collected up to 72 hours (3 days) after dosing. Immediately after the collection of the 72 hour blood sample, patients started the multiple dose regimen consisting in morning daily dose administration of 1 mg (for subject No.1) or 2 mg (6 remaining patients) until study Day 15. Urine samples were collected over 48 hours after first dosing. Urine concentrations were only available for patients No.1, No.2, No.3 and No.4, and thus only 4 patients were included in the analysis of urine excretion data.

In the next series the test system is humans. As to the kind of experiment: Maximum tolerated oral dose of halofuginone in humans. The settings on record: oral administration.

Usually half-life stands for the time needed for the level to fall by half in the phase considered. Lower therefore signals fast loss.

As for `O=C(CC1NCCCC1O)Cn1cnc2cc(Br)c(Cl)cc2c1=O` (centres unmarked) [halofuginone, 7-bromo-6-chloro-3-[3-(3-hydroxy-2-piperidinyl)-2-oxopropyl]-4(3H)-quinazolinone], the tolerability conclusion result with healthy male volunteers (2 mg given as eight doses of 0.25 mg with a snack or 4 doses of 0.5 mg with a meal) was “safe and well tolerated”. In addition, in the series with healthy male volunteers (human, in vivo), the “treatment-emergent AEs considered moderate in severity” value was “two”. In addition, in the series on healthy male volunteers (male, human, in vivo), the “headache AEs” value is 3 AEs; the “nausea AEs” value stood at 13 AEs; the “time to resolution of all vomiting AEs and most nausea AEs” value is 1 h and 0.717 h; the “total AEs reported” value is 29. Further, in the series with healthy male volunteers (male, human, in vivo), the “treatment-emergent AEs” value amounted to 28 and the “treatment-emergent AEs considered mild” value was found to be 26. Also, the tolerability conclusion result with healthy male volunteers (single dose of 2 mg with a meal) was “less well tolerated”. Further, the half-life in the series “clinical” is 37.2 h. The “maximum tolerated dose with no adverse effects observed” value in the series on humans was found to be 1 mg/day.
